molecular target: T1, GLP-1R (Homo sapiens, UniProt P43220); assay: EC20 GLP-1(9-36) PAM cAMP assay: dose response of compound in the presence of fixed concentration of GLP-1(9-36); format: cell-based; details: GLP-1R CRE-bla CHO-K1 cells, compound dose response with fixed concentration of GLP-1(9-36), read-out: EC20 GLP-1(9-36) PAM EC50
T1 construct: host or cells: GLP-1R CRE-bla CHO-K1 cells
Summary of the method: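 Positive allosteric modulation read as cAMP accumulation: compound titrations (12 points) combined with an EC20 level of GLP-1(9-36) on CHO-K1 GLP-1R CRE-bla cells, IBMX present, 30 min, 37 °C, pH 7.4 buffer. Luminescence converted to cAMP via standards; non-linear fit gave EC50 and Emax.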

T1 sequence (P43220 24-463): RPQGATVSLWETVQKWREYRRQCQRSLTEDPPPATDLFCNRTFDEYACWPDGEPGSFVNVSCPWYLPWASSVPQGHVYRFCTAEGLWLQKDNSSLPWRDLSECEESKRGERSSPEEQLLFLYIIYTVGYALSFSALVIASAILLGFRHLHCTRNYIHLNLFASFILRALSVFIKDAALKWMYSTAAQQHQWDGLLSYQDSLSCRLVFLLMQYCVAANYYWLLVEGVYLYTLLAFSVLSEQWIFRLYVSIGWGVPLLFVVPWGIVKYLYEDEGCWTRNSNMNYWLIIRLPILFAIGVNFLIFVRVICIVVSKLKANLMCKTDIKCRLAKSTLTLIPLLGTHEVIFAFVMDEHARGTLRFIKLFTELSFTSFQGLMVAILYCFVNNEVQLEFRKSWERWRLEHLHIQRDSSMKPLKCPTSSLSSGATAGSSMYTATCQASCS
T1 sequence (P01275 100-127 partner limits assumed): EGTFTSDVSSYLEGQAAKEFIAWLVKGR

SMILES	EC50
CCC[C@H]1CC[C@H](C2CCN(c3cnc(-c4ccc(CC(NC(=O)c5ccc(C(C)(C)C)s5)C(=O)NS(=O)(=O)C(F)(F)F)cc4)nc3)CC2)CC1 (stereo partly shown) [Compound 1549]	< 0.8 µM
CCC[C@H]1CC[C@H](C2CCN(c3cnc(-c4ccc(C[C@H](NC(=O)c5ccc(C(C)(C)C)s5)C(=O)NCCC(=O)O)cc4)nc3)CC2)CC1 [Compound 1433]	< 0.8 µM
CCC[C@H]1CC[C@H](C2CCN(c3cnc(-c4ccc(C[C@H](NC(=O)[C@H]5CC[C@H](C(C)(C)C)CC5)C(=O)N5CC(C(=O)O)C5)cc4)nc3)CC2)CC1 [Compound 1527]	0.8 to 2.5 µM
C[C@@H](NC(=O)[C@H](Cc1ccc(-c2ncc(/C=C/c3ccc(F)cc3)cn2)cc1)NC(=O)c1ccc(C(C)(C)C)s1)C(=O)O [Compound 1249]	2.5 to 5 µM
C[C@@H](NC(=O)[C@H](Cc1ccc(-c2ncc(-c3ccc(-c4ccc(Cl)cc4)cc3)cn2)cc1)NC(=O)c1ccc(C(C)(C)C)s1)C(=O)O [Compound 1315]	< 0.8 µM
CC(C)(C)c1ccc(C(=O)N[C@@H](Cc2ccc(-c3ncc(-c4ccc(-c5ccccc5C(F)(F)F)cc4F)cn3)cc2)C(=O)N2CC(C(=O)O)C2)s1 [Compound 1223]	< 0.8 µM
CCC[C@H]1CC[C@H](C2CCN(c3cnc(-c4ccc(C[C@H](NC(=O)c5ccc(C(C)(C)C)s5)C(=O)N[C@@H](C(=O)O)C(C)C)cc4)nc3)CC2)CC1 [Compound 1449]	< 0.8 µM
CCC[C@H]1CC[C@H](C2CCN(c3cnc(-c4ccc(C[C@H](NC(=O)c5ccc(C(C)(C)C)s5)C(=O)O)cc4)nc3)CC2)CC1 [Compound 1439, (S)-2-(5-(tert-butyl)thiophene-2-carboxamido)-3-(4-(5-(4-((1s,4r)-4-propylcyclohexyl)piperidin-1-yl)pyrimidin-2-yl)phenyl)propanoic acid]	< 0.8 µM
CCC[C@H]1CC[C@H](C2CCN(c3cnc(-c4ccc(C[C@H](NC(=O)c5ccc(C(C)(C)C)s5)C(=O)N[C@H](C)CC(=O)O)cc4)nc3)CC2)CC1 [Compound 1468]	< 0.8 µM
C[C@@H](NC(=O)[C@H](Cc1ccc(-c2ncc(/C=C/c3cccc(F)c3)cn2)cc1)NC(=O)c1ccc(C(C)(C)C)s1)C(=O)O [Compound 1248]	5 to 10 µM

More lines, now with the values ahead:

EC50	SMILES
< 0.8 µM	C[C@@H](NC(=O)[C@H](Cc1ccc(-c2ncc(-c3ccc(C4CCCCC4)cc3)cn2)cc1)NC(=O)c1ccc(C(C)(C)C)s1)C(=O)O [Compound 1282]
< 0.8 µM	CCC[C@H]1CC[C@H](C2CCN(c3cnc(-c4ccc(C[C@H](NC(=O)c5ccc(C(C)(C)C)cc5)C(=O)N5CC(C(=O)O)C5)cc4)nc3)CC2)CC1 [Compound 1414]
2.5 to 5 µM	CC(C)(C)c1ccc(C(=O)N[C@@H](Cc2ccc(-c3ncc(-c4ccc([C@H]5CC[C@H](C)CC5)cc4)cn3)cc2)C(=O)O)s1 [Compound 1358]
0.8 to 2.5 µM	CCc1ccc(C(=O)N[C@@H](Cc2ccc(-c3ncc(-c4ccc(OCCCC(C)C)cc4)cn3)cc2)C(=O)N2CC(C(=O)O)C2)cc1 [Compound 1228]
5 to 10 µM	CCc1ccc(C(=O)N[C@@H](Cc2ccc(-c3ncc(-c4ccc([C@H]5CC[C@H](CC)CC5)cc4)cn3)cc2)C(=O)O)cn1 [Compound 1390]
< 0.8 µM	CC(C)CCCOc1ccc(-c2cnc(-c3ccc(C[C@H](NC(=O)c4ccc(S(C)(=O)=O)s4)C(=O)N4CC(C(=O)O)C4)cc3)nc2)cc1 [Compound 1246]
< 0.8 µM	CCCCOc1ccc(-c2ccc(-c3cnc(-c4ccc(C[C@H](NC(=O)c5ccc(C(C)(C)C)s5)C(=O)N5CC(C(=O)O)C5)cc4)nc3)c(F)c2)cc1 [Compound 1332]
0.8 to 2.5 µM	CC1(C)CCC(c2ccc(-c3cnc(-c4ccc(C[C@H](NC(=O)c5ccc(C(C)(C)C)s5)C(=O)O)cc4)nc3)cc2)CC1 [Compound 1344]
0.8 to 2.5 µM	CC(C)CCCOc1ccc(-c2cnc(-c3ccc(C[C@H](NC(=O)c4ccn(C(C)(C)C)c4)C(=O)N4CC(C(=O)O)C4)cc3)nc2)cc1 [Compound 1242]

same assay, conditions: dose response of compound in presence of fixed concentration of GLP-1(9-36), GLP-1R CRE-bla CHO-K1 cells, read-out: EC20 GLP-1(9-36) PAM EC50

SMILES	EC50
CCCCCCCOc1ccc(-c2cnc(-c3ccc(C[C@H](NC(=O)c4ccc(C(C)(C)C)s4)C(=O)N4CC(CN(C)C)C4)cc3)nc2)cc1 [Compound 975]	5 to 10 µM
CCCCCCCOc1ccc(-c2cnc(-c3ccc(C[C@H](NC(=O)c4ccc(C(C)(C)C)s4)C(=O)N[C@H](C)C(=O)O)cc3)c(C)c2)cc1 [Compound 812]	0.8 to 2.5 µM
CCCCCCCOc1ccc(-c2cnc(-c3ccc(C[C@H](NC(=O)c4ccc(C(C)(C)C)s4)C(=O)N[C@@H](CC(=O)O)C(=O)NCC(N)=O)cc3)nc2)cc1 [Compound 530]	< 0.8 µM
CCCCCCCCOc1ccc(-c2cnc(-c3ccc(C[C@H](NC(=O)c4ccc(C(C)(C)C)s4)C(=O)N[C@H](C)C(=O)O)cc3)nc2)cc1 [Compound 736]	< 0.8 µM
CC(C)COc1cc(-c2cnc(-c3ccc(C[C@H](NC(=O)c4ccc(C(C)(C)C)s4)C(=O)N[C@H](C)C(=O)O)cc3)nc2)cc(Cl)c1F [Compound 1011]	2.5 to 5 µM
CCCCCCCOc1ccc(-c2cnc(-c3ccc(C[C@H](NC(=O)c4ccc(C(C)(C)C)s4)C(=O)NC(CCCC(=O)O)C(=O)O)cc3)nc2)cc1 (stereo partly shown) [Compound 633]	0.8 to 2.5 µM
CCCCCCCOc1ccc(-c2cnc(-c3ccc(C[C@H](NC(=O)c4ccc(C(C)(C)C)cc4)C(=O)NC(C(=O)O)c4cccs4)cc3)nc2)cc1 (stereo partly shown) [Compound 455]	< 0.8 µM
CC(C)c1cccc(-c2cnc(-c3ccc(C[C@H](NC(=O)c4ccc(C(C)(C)C)s4)C(=O)N[C@H](C)C(=O)O)cc3)nc2)c1 [Compound 1033]	5 to 10 µM
CCc1ccc(-c2ccc(-c3cnc(-c4ccc(C[C@H](NC(=O)c5ccc(C(C)(C)C)s5)C(=O)N[C@H](C)C(=O)O)cc4)nc3)c(F)c2)cc1 [Compound 1173]	< 0.8 µM
CCCCCCCOc1ccc(-c2cnc(-c3ccc(C[C@H](NC(=O)c4ccc(C(C)(C)C)cc4)C(=O)NC(C(=O)O)c4ccc(C)cc4)cc3)nc2)cc1 (stereo partly shown) [Compound 454]	0.8 to 2.5 µM
CCCCCCCOc1ccc(-c2cnc(-c3ccc(C[C@H](NC(=O)c4ccc(N5CCCC5)cc4)C(=O)NCCC(=O)O)cc3)nc2)cc1 [Compound 869]	2.5 to 5 µM
CCCCCCCOc1ccc(-c2cnc(-c3ccc(CC(NC(=O)c4ccc(C(C)(C)C)s4)C(=O)N[C@@H](CC(C)C)C(=O)O)cc3)nc2)cc1 (stereo partly shown) [Compound 408]	0.8 to 2.5 µM
CCCCCCCOc1ccc(-c2cnc(-c3ccc(C[C@H](NC(=O)c4ccc(CC(C)C)cc4)C(=O)N[C@H](C)C(=O)O)cc3)nc2)cc1 [Compound 823]	0.8 to 2.5 µM
CCCCCCCOc1ccc(-c2cnc(-c3ccc(C[C@H](NC(=O)c4ccc(C(C)(C)C)s4)C(=O)O)cc3)nc2)nc1 [Compound 1062, (S)-2-(5-(tert-butyl)thiophene-2-carboxamido)-3-(4-(5-(5-(heptyloxy)pyridin-2-yl)pyrimidin-2-yl)phenyl)propanoic acid]	0.8 to 2.5 µM
CCCCCCCOc1ccc(-c2cnc(-c3ccc(C[C@H](NC(=O)c4ccc(C5CC5)s4)C(=O)N[C@H](C)C(=O)O)cc3)nc2)cc1 [Compound 842]	0.8 to 2.5 µM
CCCCCCCOc1ccc(-c2cnc(-c3ccc(C[C@H](NC(=O)c4ccc(C(C)(C)CC)cc4)C(=O)N4CCC[C@H]4C(=O)O)cc3)nc2)cc1 [Compound 1082]	0.8 to 2.5 µM
CCCCCCCOc1ccc(-c2cnc(-c3ccc(C[C@H](NC(=O)c4ccc(OCCC)cc4)C(=O)N4CCC[C@H]4C(=O)O)cc3)nc2)cc1 [Compound 1071]	2.5 to 5 µM
CCCCCCCOc1ccc(-c2cnc(-c3ccc(C[C@H](NC(=O)c4ccc(C(C)(C)C)s4)C(=O)NCC4(C)CNC4)cc3)nc2)cc1 [Compound 986]	0.8 to 2.5 µM
CCCCCCCOc1c(C)cc(-c2cnc(-c3ccc(C[C@H](NC(=O)c4ccc(C(C)(C)C)cc4)C(=O)NCCC(=O)O)cc3)nc2)cc1C [Compound 705]	0.8 to 2.5 µM
CCCCCCCOc1ccc(-c2cnc(-c3ccc(C[C@H](NC(=O)c4ccc(OC)cc4)C(=O)N[C@H](C)C(=O)O)cc3)nc2)cc1 [Compound 817]	0.8 to 2.5 µM
CCCCCCOc1ccc(-c2cnc(-c3ccc(C[C@H](NC(=O)c4ccc(C(C)(C)C)s4)C(=O)NC(C(=O)O)C(O)c4ccccc4)cc3)nc2)cc1 (stereo partly shown) [Compound 943]	0.8 to 2.5 µM
COc1ccc2cc(-c3cnc(-c4ccc(C[C@H](NC(=O)c5ccc(C(C)(C)C)s5)C(=O)N[C@H](C)C(=O)O)cc4)nc3)ccc2c1 [Compound 997]	5 to 10 µM

Now from value to compound:

EC50	SMILES
2.5 to 5 µM	CC(C)(C)c1ccc(C(=O)N[C@@H](Cc2ccc(-c3ncc(-c4ccc(OCC5CC5)cc4)cn3)cc2)C(=O)N2CC(C(=O)O)C2)s1 [Compound 781]
< 0.8 µM	CCCCCCCOc1ccc(-c2cnc(-c3ccc(CC(NC(=O)c4ccc(C(C)(C)C)s4)C(=O)N4CCC(C(=O)O)C4)cc3)nc2)cc1 (stereo not shown) [Compound 625]
< 0.8 µM	CC1CCC(c2ccc(-c3cnc(-c4ccc(C[C@H](NC(=O)c5ccc(C(C)(C)C)s5)C(=O)N5CC(C(=O)O)C5)cc4)nc3)cc2)CC1 (stereo partly shown) [Compound 1187]
0.8 to 2.5 µM	CCCCCCCOc1ccc(-c2cnc(-c3ccc(C[C@H](NC(=O)c4cnc(C(C)(C)C)nc4)C(=O)NC(C(=O)O)C(O)c4ccccc4)cc3)nc2)cc1 (stereo partly shown) [Compound 953]
< 0.8 µM	CCCCCCCOc1ccc(-c2cnc(-c3ccc(C[C@H](NC(=O)c4ccc(C(C)(C)C)s4)C(=O)N4CCC[C@H]4C(=O)N4CCCC4C(=O)O)cc3)nc2)cc1 (stereo partly shown) [Compound 497]
2.5 to 5 µM	CCCCCCCOc1ccc(-c2cnc(-c3ccc(C[C@H](NC(=O)c4ccc(CC(C)C)cc4)C(=O)N4CC[C@H](C(=O)O)C4)cc3)nc2)cc1 [Compound 851]
2.5 to 5 µM	CCCCCCCOc1ccc(-c2cnc(-c3ccc(C[C@H](NC(=O)c4cnn(C(C)(C)C)c4C)C(=O)N4CCC[C@H]4C(=O)O)cc3)nc2)cc1 [Compound 1079]
< 0.8 µM	CC[C@H]1CC[C@H](c2ccc(-c3cnc(-c4ccc(C[C@H](NC(=O)c5cnc(C(C)(C)C)nc5)C(=O)N5CC(C(=O)O)C5)cc4)nc3)cc2)CC1 [Compound 1164]

Reference: patent US10034886B2, “GLP-1 receptor modulators” (Celgene International II SÀRL, priority 2014, dated 2018)
